Molecular target: native BK channels in rat cerebral artery myocytes (Rattus norvegicus, UniProt P97678+Q62976)
Assay: Inside-out patch-clamp of native BK channels in freshly isolated cerebral artery myocytes
Type: cell-based
Details: I/O patches, free Ca2+i 3 μM
Protocol: Myocyte Isolation. Basilar and middle cerebral arteries were dissected out from each brain under a stereozoom microscope (Nikon C-PS, Tokio, Japan) and placed into ice-cold “dissociation medium” (DM) (mM): 0.16 CaCl2, 0.49 EDTA, 10 HEPES, 5 KCl, 0.5 KH2PO4, 2 MgCl2, 110 NaCl, 0.5 NaH2PO4, 10 NaHCO3, 0.02 phenol red, 10 taurine, 10 glucose. Each artery was cut into 1-2 mm long rings (˜30 rings/experiment). Rings were put in 3 ml DM containing 0.03% papain, 0.05% bovine serum albumin (BSA) and 0.004% dithiothreitol (DTT) for 15 min at 37° C. in a polypropylene centrifuge tube, and then incubated in a shaking water bath at 37° C. and 60 oscillations/min. for 15 min. The prepartion was then centrifuged several times as described (Liu et al., 2004). […]
Electrophysiology. […] Single-channel and macroscopic currents were recorded from inside-out (I/O) or outside-out (O/O) patches. […] Nominal free Ca^2+ was calculated with MaxChelator Sliders (C. Patton, Stanford University, California, United States of America) and validated experimentally using Ca^2+-selective electrodes (Corning Incorporated Science Products Division, Corning, N.Y., United States of America). […]
Currents were recorded using an EPC8 amplifier (HEKA Electronics, Lambrecht/Pfalz, Germany) at 1 kHz using a low-pass, eight-pole Bessel filter 902LPF (Frequency Devices, Haverhill, Mass., United States of America). […]

Sequence of native BK channels in rat cerebral artery myocytes (Q62976 1-1148 isoform Q62976-2): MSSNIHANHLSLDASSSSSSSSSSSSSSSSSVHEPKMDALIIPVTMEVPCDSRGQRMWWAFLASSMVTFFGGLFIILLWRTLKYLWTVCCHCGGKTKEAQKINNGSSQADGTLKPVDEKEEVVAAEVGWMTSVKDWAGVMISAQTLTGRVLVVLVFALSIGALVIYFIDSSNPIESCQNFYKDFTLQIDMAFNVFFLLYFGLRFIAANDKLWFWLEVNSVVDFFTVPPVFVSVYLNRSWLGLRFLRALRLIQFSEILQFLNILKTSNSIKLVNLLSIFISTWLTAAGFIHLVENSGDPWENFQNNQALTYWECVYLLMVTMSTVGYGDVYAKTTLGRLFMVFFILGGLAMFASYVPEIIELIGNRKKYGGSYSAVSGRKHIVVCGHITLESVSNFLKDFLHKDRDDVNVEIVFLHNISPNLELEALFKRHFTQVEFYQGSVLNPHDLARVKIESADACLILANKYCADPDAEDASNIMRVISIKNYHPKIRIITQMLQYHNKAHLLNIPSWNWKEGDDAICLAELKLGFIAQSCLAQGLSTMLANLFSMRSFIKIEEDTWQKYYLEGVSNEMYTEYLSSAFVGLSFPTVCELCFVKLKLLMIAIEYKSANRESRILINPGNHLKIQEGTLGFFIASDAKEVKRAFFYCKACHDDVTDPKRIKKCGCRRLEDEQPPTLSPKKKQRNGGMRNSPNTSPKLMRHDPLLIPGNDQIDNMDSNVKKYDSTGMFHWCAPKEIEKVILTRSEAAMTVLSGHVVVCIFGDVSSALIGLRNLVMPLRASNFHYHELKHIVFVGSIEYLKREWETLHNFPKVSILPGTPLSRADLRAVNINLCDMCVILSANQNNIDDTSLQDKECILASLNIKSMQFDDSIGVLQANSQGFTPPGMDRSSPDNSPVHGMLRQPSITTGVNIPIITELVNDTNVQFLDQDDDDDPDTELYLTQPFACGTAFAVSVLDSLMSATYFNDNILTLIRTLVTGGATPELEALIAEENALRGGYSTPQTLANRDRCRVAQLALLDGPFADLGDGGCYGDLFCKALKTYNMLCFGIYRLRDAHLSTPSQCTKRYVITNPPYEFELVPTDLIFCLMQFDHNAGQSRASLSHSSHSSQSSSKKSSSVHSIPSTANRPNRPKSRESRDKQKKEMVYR
Sequence of native BK channels in rat cerebral artery myocytes (P97678 whole entry): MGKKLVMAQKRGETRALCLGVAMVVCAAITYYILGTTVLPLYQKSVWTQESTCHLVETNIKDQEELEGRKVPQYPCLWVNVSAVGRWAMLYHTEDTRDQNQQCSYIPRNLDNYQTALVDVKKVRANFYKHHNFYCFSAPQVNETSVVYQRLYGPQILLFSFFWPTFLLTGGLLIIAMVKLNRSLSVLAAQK

## C[C@H](CCC(=O)O)[C@H]1CC[C@H]2[C@@H]3CC[C@@H]4C[C@H](O)CC[C@]4(C)[C@H]3CC[C@]12C [LC, 5β-cholanic acid 3α-ol]
Vm −40 to −30 mV, read-out: EC50 for increase in NPo
  EC50: 46 ± 6 µM
read-out: NPo at Emax (% of control)
  Emax: 350%
